{"source": "paper PMC5449183", "about": "“Helical jackknives control the gates of the double-pore K^+ uptake system KtrAB” (eLife, 2017)", "key": {"[1]": {"biological_target": "T1, KtrA (RCK subunit of the KtrAB complex) (Vibrio alginolyticus, UniProt O87952)", "T1 sequence (O87953 whole entry, one chain of several, further chain)": "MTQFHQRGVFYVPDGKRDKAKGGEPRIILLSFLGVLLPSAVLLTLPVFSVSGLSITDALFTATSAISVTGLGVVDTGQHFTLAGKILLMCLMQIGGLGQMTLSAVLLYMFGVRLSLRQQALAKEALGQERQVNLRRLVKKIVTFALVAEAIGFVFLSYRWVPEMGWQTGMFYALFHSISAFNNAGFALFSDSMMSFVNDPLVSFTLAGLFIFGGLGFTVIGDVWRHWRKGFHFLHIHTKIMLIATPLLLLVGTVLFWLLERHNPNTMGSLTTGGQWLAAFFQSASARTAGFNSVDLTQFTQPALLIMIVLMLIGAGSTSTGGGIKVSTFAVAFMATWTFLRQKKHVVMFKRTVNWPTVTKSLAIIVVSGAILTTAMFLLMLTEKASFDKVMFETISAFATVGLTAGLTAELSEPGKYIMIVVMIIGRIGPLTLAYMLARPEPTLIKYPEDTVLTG", "assay": "biochemical"}, "[2]": {"biological_target": "KtrB from Vibrio alginolyticus (untagged, of the His10-KtrAB complex) (Vibrio alginolyticus) (UniProt O87953)", "assay": "cryo-EM structure; His10-KtrAB 5 mg/ml, detergent-solubilised (1.5 mM Cymal-6), 600 uM ADP, 70 mM NaCl, 30 mM KCl, 20 mM Tris-HCl pH 8.0; 20,500 particles, D2 symmetry, 6.6 A; model by flexible fitting of a homology model"}, "[3]": {"biological_target": "T1, KtrA (RCK subunit of the KtrAB complex)", "assay": "ITC on detergent-solubilized KtrAB; […] Å cryo-EM map in the presence of ADP (EMD-3450); pulsed EPR", "type": "binding", "design": "full-length KtrAB, His10-KtrAB, detergent-solubilized complex (octameric KtrA ring); with KtrB"}, "[4]": {"biological_target": "the molecule itself", "assay": "cryo-EM structure; His10-KtrAB 5 mg/ml, detergent-solubilised (1.5 mM Cymal-6), 600 uM ADP, 70 mM NaCl, 30 mM KCl, 20 mM Tris-HCl pH 8.0; 20,500 particles, D2 symmetry, 6.6 A; model by flexible fitting of a homology model"}}}
{"molecule": "Nc1ncnc2c1ncn2[C@@H]1O[C@H](COP(=O)(O)OP(=O)(O)OP(=O)(O)O)[C@@H](O)[C@H]1O", "note": "[ATP]", "values": [{"measurement": "Kd", "setting": "[1]", "result": 2000, "unit": "nM"}]}
{"molecule": "KtrB from Vibrio alginolyticus (untagged, of the His10-KtrAB complex) (from UniProt O87953 1-455) (natural protein)", "values": [{"measurement": "stoichiometry N", "setting": "[2]", "result": 2}]}
{"molecule": "Nc1ncnc2c1ncn2[C@@H]1O[C@H](COP(=O)(O)OP(=O)(O)O)[C@@H](O)[C@H]1O", "note": "[ADP]", "values": [{"measurement": "Kd", "setting": "[3]", "result": 3000, "unit": "nM"}]}
{"molecule": "KtrA from Vibrio alginolyticus (His10-KtrA of the His10-KtrAB complex) (natural protein, UniProt O87952 1-220, looked up, KtrA, cytoplasmic RCK subunit of the K+ uptake system KtrAB, Vibrio alginolyticus; gene amplified from genomic DNA; Forms an octameric ring (eight chains) in the complex KtrB2A8B2; The N-terminal end of the tag is read from the label His10-KtrAB; ADP (600 uM) was present in the cryo-EM sample; also called VaKtrA; RCK subunit; source: E. coli LB2003, co-expressed with KtrB from pBAD18 …) MKTGDKQFAVIGLGRFGLAVCKELQDSGSQVLAVDINEDRVKEAAGFVSQAIVANCTHEETVAELKLDDYDMVMIAIGADVNASILATLIAKEAGVKSVWVKANDRFQARVLQKIGADHIIMPERDMGIRVARKMLDKRVLEFHPLGSGLAMTEFVVGSRLMGKTLSDLALCKVEGVQVLGYKRGPEIIKAPDMSTTLEIGDLIIVVGPQDKLANKLKSL", "values": [{"measurement": "stoichiometry N", "setting": "[4]", "result": 8}]}
